One assay relates to Bcl-2. Nature of the assay: Western blotting of Bcl-2 expression in treated brain cancer cells. It counts as cell-based. The conditions noted are these: Daoy, IMR32 and KNS42; 48 hours. As for the experimental part: (§1) Moxidectin inhibits JAK-STAT signaling. In order to delineate the mechanism by which moxidectin mediates its anti-cancer effects in brain cancer cell lines, Daoy, IMR32, and KNS42 cells were treated with 0, 10, 15 and 20 µM moxidectin for 48 hours and evaluated by western blotting. […] It has been reported that, upon activation (phosphorylation) JAK2 activates multiple downstream transcription factors one of which is STAT3. Hyper activation of STAT3 in cancer cells is strongly attributed to evasion of apoptosis and transcriptional activation of anti-apoptotic proteins such as Bcl-2 and c-myc.
(§2) Moreover, moxidectin increased the cleavage of caspase 3 and PARP as an indication of apoptosis, a primary mode of cell death (FIG. 3).
(§3) Moreover, moxidectin increased the cleavage of caspase 3 and PARP as an indication of apoptosis, a primary mode of cell death (FIG. 7).

The test system of assay [1] is Daoy (medulloblastoma), IMR32 (neuroblastoma) and KNS42 (glioblastoma) cells. Nature of the assay: Proliferation / survival of brain cancer cells (FIGS. 1A-1C). In kind it is cell-based. An excerpt:
Moxidectin treatment suppresses the proliferation of brain cancer cells.

In assay [2] the test system is Daoy, KNS42 and IMR32 brain cancer cells. Nature of the assay: Annexin V/FITC apoptosis assay (FIGS. 2A-2C). It counts as cell-based. The method, then: The percentage of apoptotic cells with 20 µM moxidectin treatment ranged from 90-100% in all the brain cancer cell lines tested (FIGS. 2A-2C).
Induction of apoptosis by moxidectin. The mode of cell death caused by moxidectin treatment was determined by Annexin V/FITC assay in Daoy, KNS42 and IMR32 brain cancer cells. […] 15 µM moxidectin induced -80% apoptosis in Daoy, KNS42 and IMR32 brain cancer cell lines. The percentage of apoptotic cells with 20 µM moxidectin treatment ranged from 90-100% in all the brain cancer cell lines tested (FIGS. 2A-2C). Induction of apoptosis by moxidectin treatment in these cell lines was further assessed by increase in the cleavage of caspase 3 and PARP (FIG. 3).

The next assay relates to STAT3. Nature of the assay: Western blotting of STAT3 phosphorylation in treated brain cancer cells. It counts as cell-based. The conditions noted are these: Daoy, IMR32, KNS42; 0, 10, 15 and 20 µM, 48 hours. As for the experimental part: as §1
(§4) It has been reported that, upon activation (phosphorylation) JAK2 activates multiple downstream transcription factors one of which is STAT3. Hyperactivation of STAT3 in cancer cells is strongly attributed to evasion of apoptosis and transcriptional activation of anti-apoptotic proteins such as Bcl-2 and c-myc.

The subject of the next assay is caspase 3 and PARP. Nature of the assay: Western blotting of caspase 3 and PARP cleavage in treated brain cancer cells. It counts as cell-based. To be noted: Daoy, IMR32 and KNS42; 48 hours. As for the experimental part: as §1, §2, §3
For assay [3], the system named is Daoy cells (medulloblastoma). Nature of the assay: Subcutaneously implanted Daoy tumor growth in mice. It counts as in vivo. The conditions noted are these: subcutaneous Daoy. As for the experimental part:
(§5) Moxidectin suppresses the growth of subcutaneously implanted brain cancer cells. To evaluate the ability of moxidectin in inhibiting the growth of brain tumor cells in vivo, ~ 4 million Daoy cells were injected subcutaneously into the right flank of the mice. Once the tumor cells started growing and the tumor volume reached ~ 70 mm^3, mice were randomized into four groups. Control group received the vehicle whereas the treatment group received 2.5 mg/kg, 5 mg/kg and 10 mg/kg moxidectin once every day. The tumor readings were taken twice a week throughout the course of the experiment using Vernier caliper. […] Similarly, 2.5 mg/kg and 5 mg/kg moxidectin suppressed Daoy tumor growth by 45% and 60% respectively (FIG. 4B).
as §5, with “4C). […] In another experiment, ~0.3 million Daoy luc cells were injected intracranially in the brain of athymic nude mice. The mice were given 2.5 mg/kg for 33 days. Moxidectin was able to inhibit -65% of intracranially implanted medulloblastoma tumors. […] Additionally, ~ 3 million SK-N-AS neuroblastoma cells were injected subcutaneously in the right flank of the mice. Mice were randomized on day 10. Treatment group received 3.5 mg/kg moxidectin. The experiment was terminated on day 23. Moxidectin was able to inhibit 60% of subcutaneously implanted neuroblastoma tumors (FIG. 4D).” for “4B).”

Assay [4] concerns Daoy, UW228, ONS76, UW426, PFSK1 and IMR32 brain cancer cells. Nature of the assay: Annexin V/FITC apoptosis assay (FIGS. 6A-6F). It counts as cell-based. As for the experimental part:
(§6) The mode of cell death caused by moxidectin treatment was determined by Annexin V/FITC assay in Daoy, UW228, ONS76, UW426, PFSK1 and IMR32 brain cancer cells (FIGS. 6A-6F, resepectively). […] 15 µM moxidectin induced -80% apoptosis in Daoy and IMR32 brain cancer cell lines. The percentage of apoptotic cells with 20 µM moxidectin treatment ranged from 90-100% in all the brain cancer cell lines. Induction of apoptosis by moxidectin treatment in these cell lines was further assessed by increase in the cleavage of caspase 3 and PARP (FIG. 3).
as §6, with “FIGS. 6A-6F show the induction of apoptosis by moxidectin. The mode” for “The mode”, “PARP (FIG. 7).” for “PARP (FIG. 3).”

The test system of a further assay is Janus Kinase 2 (JAK2). Nature of the assay: Western blotting of JAK2 in treated brain cancer cells. In kind it is cell-based. The conditions noted are these: Daoy, IMR32, KNS42, 0, 10, 15 and 20 µM, 48 hours. The method, then:
Daoy, IMR32, and KNS42 cells were treated with 0, 10, 15 and 20 µM moxidectin for 48 hours and evaluated by western blotting.
as §1, §4

For assay [5], the system named is SK-N-AS neuroblastoma cells. Nature of the assay: Subcutaneously implanted SK-N-AS neuroblastoma tumors in mice. The conditions noted are these: 3.5 mg/kg; randomized day 10, terminated day 23. It counts as in vivo.
For assay [6], the system named is Daoy luc cells (medulloblastoma). Nature of the assay: Intracranially implanted Daoy luc tumors in mice. It counts as in vivo, athymic nude mice. The conditions noted are these: 2.5 mg/kg for 33 days; intracranial Daoy luc.
Assay [7] deals with Daoy, UW228, ONS76, UW246, PFSK1 (medulloblastoma), IMR32, SF268, SF295 (glioblastoma), SK-N-AS (neuroblastoma) cells. Nature of the assay: Proliferation / survival of brain cancer cell line panel (FIGS. 5A-5I). It counts as cell-based.
Setting [8] is: varying concentrations, concentration and time-dependent.
The mark [9] stands for this setting: treatment for 48 hours, all brain cancer cells.

Experimental findings from patent publication US20230038646A1, “NOVEL AND POTENT JAK/STAT INHIBITOR” (Texas Tech University System, priority 2020, published 2023) are described below.

The structures appear in SMILES notation.

Take `CO/N=C1\C[C@]2(C[C@@H]3C[C@@H](C/C=C(\C)C[C@@H](C)/C=C/C=C4\CO[C@@H]5[C@H](O)C(C)=C[C@@H](C(=O)O3)[C@]45O)O2)O[C@H](/C(C)=C/C(C)C)[C@H]1C` [Moxidectin]: in the assay on Bcl-2, the “expression of anti-apoptotic protein Bcl-2” value is listed as “reduced”. The IC50 lay within 11 to 16 µM in assay [1] (Daoy, IMR32 and KNS42, 24, 48 and 72-hour time point); 9.7 to 30 µM in assay [7] (all brain cancer cell lines, 24, 48 and 72-hour time point). Further, the survival of cells entry in [1] (setting [8]) and in assay [7] (setting [8]) was “significant reduction” in each case. For the same compound, the apoptotic effects result in assay [2] (10 µM, 48 hours, all three cell lines) is on record as “minimal apoptotic effects”; in assay [4] (10 µM, 48 hours, all cell lines tested), “minimal apoptotic effects”. In addition, the apoptosis induced in assay [2] (15 µM, 48 hours, Daoy, KNS42 and IMR32) came to 80%; in assay [4] (15 µM, 48 hours, Daoy and IMR32), 80%. The “percentage of apoptotic cells” value is given as 90-100% in [2] (20 µM, 48 hours, all cell lines tested) and 90-100% in assay [4] (20 µM, 48 hours, all cell lines). Also, the apoptosis result in [2] (setting [9]) and in [4] (setting [9]) was “significant increase” throughout. The “phosphorylation of STAT3 at Tyr705” value in the assay on STAT3 is reported as “reduced”. For the same compound, in the assay on caspase 3 and PARP, the “cleavage of caspase 3 and PARP” value is “increased”. Besides, the “suppression of tumor growth” value turned out to be 45% in [3] (2.5 mg/kg once every day), 60% in [3] (5 mg/kg once every day) and 90% in assay [3] (10 mg/kg once every day). Besides, the “protein level of JAK2” value in the assay with Janus Kinase 2 (JAK2) is “remained unchanged”. In addition, in the assay with Janus Kinase 2 (JAK2) (concentration-dependent), the “phosphorylation of JAK2 at Tyr1007/1008” value is listed as “reduced”. Moreover, the “inhibition of subcutaneously implanted neuroblastoma tumors” value in assay [5] is reported as 60%. Moreover, in [6], the inhibition of intracranially implanted tumors stood at 65%.
